One series has as its system muscle. The series is described as follows: Gene expression in muscle (qPCR). The class given is in vivo, mouse. The procedure: FIG. 31. Osteocalcin treatment increases muscle function in young and old WT mice. (A-B) Performance during endurance exercise of 3 month-old WT, Gprc6af/f and Gprc6aMck−/− female mice treated with Ocn (n=6-10 per group). (C) Performance during endurance exercise of 12 and 15 month-old WT female mice treated with Ocn (n=6-10 per group). (D) Western blot analysis of Akt phosphorylation (Ser473) in muscles of WT mice injected with Ocn (500 ng/g) after a single bout of exercise. (E) Western blot analysis of AMPK phosphorylation ([…]) in muscles of WT mice injected with Ocn (500 ng/g) after a single bout of exercise. (F) Western blot analysis of HSL phosphorylation (Ser563) in muscles of WT mice injected with Ocn (500 ng/g) after a single bout of exercise. (G) Uptake of ^3H-2-DG in glycolytic (Gly—white quadriceps) and oxidative (Ox—red quadriceps) muscles after a single bout of exercise in 15 month-old WT mice receiving Ocn before running (n=5 per group). (H) Performance during endurance exercise of 10 month-old WT mice receiving Ocn for 28 days (n=7 per group). (I) Expression of Cd36, Fatp1 and Cpt1b in gastrocnemius of 10 month-old WT mice receiving Ocn for 28 days (n=7 per group). (J) Western blot analysis of Akt phosphorylation (Ser473) in muscles of WT mice receiving Ocn for 28 days (n=7 per group). (K) Schematic representation of how osteocalcin signaling in myofibers and IL-6 cooperate to increase exercise capacity.
Serum osteocalcin, PINP, CTX, and insulin levels were measured using ELISA assays. Blood glucose level was measured using an Accu-Check glucometer. Urine 3-MHT was measured as previously described (Aranibar et al., 2011, Anal. Biochem. 410:84-91). Determination of cAMP accumulation was performed using a commercial kit (R&D). For gene expression, 1 μg of total RNA was reverse transcribed into cDNA. qPCR analyses were performed using a SYBER green master mix (Applied Biosciences) and a CFX-Connect real time PCR (Bio-Rad). Relative expression levels of each gene were normalized to that of Hprt or Gapdh. […]

In the next series the test system is mice. The series is described as follows: Mouse asthma model (albumin sensitisation, nebulized albumin). The class given is in vivo. To be noted: osteocalcin given by nebulization together with the nebulized albumin. An excerpt: In a mouse asthma model that involves intraperitoneal injection of albumin (to sensitize the mice) followed a week later by nebulized administration of albumin to the lungs of the mice, osteocalcin given by nebulization together with the nebulized albumin prevented the bronchoconstriction that would have otherwise been observed.

For series [1], the system named is wild type mice. Nature of the series: Glycemia during subcutaneous infusion. In kind it is in vivo, mouse. To be noted: 0.3, 1 and 3 ng/hour subcutaneously for 28 days, versus PBS. The procedure:
FIG. 1. Osteocalcin subcutaneous infusion decreases glycemia in wild-type mice. Indicated doses of recombinant osteocalcin or PBS were infused subcutaneously for 28 days in wild-type mice. Blood glucose was measured at indicated days.
An in vivo experiment was conducted in which the effect of undercarboxylated osteocalcin on glycemia was monitored. Wild type mice were infused with 3 different amounts of mouse recombinant undercarboxylated osteocalcin or placebo (PBS) subcutaneously for 28 days (0.3, 1 and 3 ng/hour). Compared to the control animal infused with placebo, all three doses of undercarboxylated osteocalcin decreased glycemia in vivo over the 28 day period (FIG. 1).

Series [2] relates to wild type mice. Nature of the series: Insulin sensitivity test after subcutaneous infusion. In kind it is in vivo, mouse. To be noted: 0.3 or 3 ng/hour subcutaneously for 18 days, 0-120 minutes after insulin injection. The method, then: FIG. 3. Osteocalcin subcutaneous infusion increases insulin sensitivity in wild-type mice. Wild-type mice were infused subcutaneously with indicated doses of recombinant osteocalcin or PBS for 18 days before receiving a single injection of insulin. Blood glucose was measured thereafter at indicated times.
The effect of uncarboxylated osteocalcin on insulin sensitivity was also examined. Wild type mice were infused subcutaneously with 0.3 or 3 ng/hour doses of recombinant osteocalcin or PBS for 18 days before receiving a single injection of insulin. Blood glucose was measured thereafter at the indicated times from 0-120 minutes after injection.

The subject of series [3] is wild type mice injected with gold thioglucose (GTG). The series is described as follows: GTG-induced obesity. The class given is in vivo, mouse. The procedure: FIG. 5. Osteocalcin subcutaneous infusion alleviates GTG-induced obesity in wild-type mice. Wild-type mice were injected with gold thioglucose (GTG) or vehicle to induce hyperphagia and obesity. Two weeks later they were implanted with subcutaneous osmotic pumps infusing […] of recombinant osteocalcin or PBS for 28 days before. Body weight gain was recorded thereafter at indicated days.
For GTG-induced obesity, male and female 4 week-old wild-type (WT) and Osteocalcin^−/− mice (n=10 per group) were injected with […] of GTG
The effect of uncarboxylated osteocalcin on GTG-induced obesity was investigated (FIG. 5). Wild type mice were injected with gold thioglucose (GTG) to induce hyperphagia and obesity or vehicle. Two weeks later they were implanted with subcutaneous osmotic pumps infusing 1 ng/hr of recombinant uncarboxylated osteocalcin or PBS for 28 days. […] At 28 days, body weight was reduced by about 15% with uncarboxylated osteocalcin treatment.

Series [4] in a line: Crossing of the blood-brain barrier. Conditions: stated without test description.

Results on 1 substance are retold here after patent publication US11191811B2, “Osteocalcin as a treatment for frailty associated with aging” (THE TRUSTEES OF COLUMBIA UNIVERSITY IN THE CITY OF NEW YORK, priority 2014, dated 2021).

Take “uncarboxylated osteocalcin: Recombinant uncarboxylated mouse osteocalcin, bacterially produced, purified on glutathione beads and cleaved from the GST subunit by thrombin (YLGASVPSPDPLEPTREQCELNPACDELSDQYGLKTAYKRIYGITI)”: the “expression in muscles of Glut1” value in the series with muscle (at rest or after exercise) was “did not affect”. Moreover, the “expression in muscles of Glut4” value in the series on muscle (at rest or after exercise) is recorded as “did not affect”. Moreover, the “expression in muscle of Fatp1” value in the series on muscle (mini-pumps 90 ng/hour for 28 days) is given as “increase”. Moreover, the bronchoconstriction result in the series on mice was “prevented”. The glycemia entry with wild type mice [1] is recorded as “decreases”; with wild type mice [1] (listed as undercarboxylated osteocalcin), “decreased”. Moreover, the results for the insulin sensitivity result in the series on wild type mice [2] and with wild type mice [2] (listed as Osteocalcin) were “increased” and “increases”, respectively. In series [3] (1 ng/hr subcutaneous osmotic pumps for 28 days, from 7 days on), the body weight gain entry is “significantly reduced”. In addition, the “reduction of body weight” value in series [3] (1 ng/hr, at 28 days) is given as “about 15%”. Further, the GTG-induced obesity result in series [3] (subcutaneous infusion 28 days (FIG. 5 title)) is listed as “alleviates”. Moreover, the “crossing of the blood-brain barrier” value is reported as “crosses” in series [4] and “can cross” in series [4] (listed as undercarboxylated/uncarboxylated osteocalcin).
